Assay: cn = amount concentration of the nth substance listed, in mol/dm3
Details: 101 kPa, Liquid, Advanced Conductivity Orion 162A

CCCC[N+](CCCC)(CCCC)CCCC.O=C([O-])C(F)(F)C(F)(F)C(F)(F)C(F)(F)C(F)(F)C(F)(F)C(F)(F)F [tetrabutylammonium perfluorooctanoate] + O
Details | electrical conductivity [S/m]
283.1 K, c1 = 0.000329 | 0.00105
283.1 K, c1 = 0.000649 | 0.0019
283.1 K, c1 = 0.000962 | 0.00271
283.1 K, c1 = 0.001266 | 0.00351
283.1 K, c1 = 0.001562 | 0.00431
283.1 K, c1 = 0.001852 | 0.00505
283.1 K, c1 = 0.002134 | 0.00579
283.1 K, c1 = 0.00241 | 0.00643
283.1 K, c1 = 0.002678 | 0.00707
283.1 K, c1 = 0.002941 | 0.00749
283.1 K, c1 = 0.003198 | 0.00762
283.1 K, c1 = 0.003448 | 0.0077
283.1 K, c1 = 0.003814 | 0.00782
283.1 K, c1 = 0.004167 | 0.00793
283.1 K, c1 = 0.004508 | 0.00803
283.1 K, c1 = 0.004839 | 0.00812
283.1 K, c1 = 0.005159 | 0.00821
283.1 K, c1 = 0.005469 | 0.00831
288.15 K, c1 = 0.000247 | 0.00099
288.15 K, c1 = 0.000488 | 0.00175
288.15 K, c1 = 0.000723 | 0.00249
288.15 K, c1 = 0.000952 | 0.0032
288.15 K, c1 = 0.001176 | 0.00389
288.15 K, c1 = 0.001395 | 0.00457
288.15 K, c1 = 0.001609 | 0.00521
288.15 K, c1 = 0.001818 | 0.00582
288.15 K, c1 = 0.00202 | 0.00641
288.15 K, c1 = 0.002222 | 0.00704
288.15 K, c1 = 0.002418 | 0.00756
288.15 K, c1 = 0.002609 | 0.00796
288.15 K, c1 = 0.002796 | 0.00811
288.15 K, c1 = 0.002979 | 0.00819
288.15 K, c1 = 0.003246 | 0.0083
288.15 K, c1 = 0.003505 | 0.00839
288.15 K, c1 = 0.003838 | 0.00852
288.15 K, c1 = 0.004158 | 0.00863
288.15 K, c1 = 0.004466 | 0.00873
288.15 K, c1 = 0.004906 | 0.00888
288.15 K, c1 = 0.005321 | 0.00902
293.15 K, c1 = 0.000263 | 0.00116
293.15 K, c1 = 0.000519 | 0.0021
293.15 K, c1 = 0.000769 | 0.00299
293.15 K, c1 = 0.001013 | 0.00386
293.15 K, c1 = 0.00125 | 0.00471
293.15 K, c1 = 0.001481 | 0.00552
293.15 K, c1 = 0.001707 | 0.00626
293.15 K, c1 = 0.001928 | 0.00699
293.15 K, c1 = 0.002143 | 0.0077
293.15 K, c1 = 0.002353 | 0.00829
293.15 K, c1 = 0.002558 | 0.0085
293.15 K, c1 = 0.002759 | 0.00862
293.15 K, c1 = 0.002954 | 0.00871
293.15 K, c1 = 0.00324 | 0.00884
293.15 K, c1 = 0.003516 | 0.00895
293.15 K, c1 = 0.003784 | 0.00907
293.15 K, c1 = 0.004042 | 0.0092
293.15 K, c1 = 0.004375 | 0.00931
293.15 K, c1 = 0.004694 | 0.00944
293.15 K, c1 = 0.005 | 0.00956
298.15 K, c1 = 0.000248 | 0.00124
298.15 K, c1 = 0.00049 | 0.00229
298.15 K, c1 = 0.000728 | 0.0033
298.15 K, c1 = 0.000962 | 0.0043
298.15 K, c1 = 0.00119 | 0.00528
298.15 K, c1 = 0.001415 | 0.00618
298.15 K, c1 = 0.001636 | 0.00703
298.15 K, c1 = 0.001852 | 0.00789
298.15 K, c1 = 0.002064 | 0.00869
298.15 K, c1 = 0.002273 | 0.00907
298.15 K, c1 = 0.002477 | 0.00916
298.15 K, c1 = 0.002728 | 0.00927
298.15 K, c1 = 0.003094 | 0.00944
298.15 K, c1 = 0.003448 | 0.00959
298.15 K, c1 = 0.003814 | 0.00976
298.15 K, c1 = 0.004167 | 0.00992
298.15 K, c1 = 0.004592 | 0.01011
298.15 K, c1 = 0.005 | 0.01028
303.15 K, c1 = 0.000263 | 0.00148
303.15 K, c1 = 0.000519 | 0.00267
303.15 K, c1 = 0.000769 | 0.00383
303.15 K, c1 = 0.001013 | 0.00497
303.15 K, c1 = 0.00125 | 0.0061
303.15 K, c1 = 0.001481 | 0.00717
303.15 K, c1 = 0.001707 | 0.00814
303.15 K, c1 = 0.001928 | 0.00909
303.15 K, c1 = 0.002143 | 0.00964
303.15 K, c1 = 0.002353 | 0.00979
303.15 K, c1 = 0.002558 | 0.00989
303.15 K, c1 = 0.002759 | 0.00998
303.15 K, c1 = 0.002954 | 0.01005
303.15 K, c1 = 0.00324 | 0.01016
303.15 K, c1 = 0.003516 | 0.01026
303.15 K, c1 = 0.003784 | 0.01035
303.15 K, c1 = 0.004042 | 0.01044
303.15 K, c1 = 0.004375 | 0.01055
303.15 K, c1 = 0.004694 | 0.01065
308.15 K, c1 = 0.000309 | 0.00189
308.15 K, c1 = 0.00061 | 0.0034
308.15 K, c1 = 0.000904 | 0.00484
308.15 K, c1 = 0.00119 | 0.00633
308.15 K, c1 = 0.00147 | 0.00774
308.15 K, c1 = 0.001744 | 0.00909
308.15 K, c1 = 0.002011 | 0.01001
308.15 K, c1 = 0.002273 | 0.01017
308.15 K, c1 = 0.002423 | 0.01022
308.15 K, c1 = 0.002578 | 0.01026
308.15 K, c1 = 0.002728 | 0.0103
308.15 K, c1 = 0.002876 | 0.01034

Reference: the NIST ThermoML archive (doi:10.1021/je900916e)
